Results on 25 molecules are retold here after article PMC9501377, “New Diarylamine KV10.1 Inhibitors and Their Anticancer Potential” (Pharmaceutics, 2022).

One assay has as its target T1, KV10.1 (Eag1) (Homo sapiens, UniProt O95259).
T1 construct: expressed in transfected cells; host or cells: HEK-293 (stably transfected)
T1 sequence (O95259 1-962 isoform O95259-2): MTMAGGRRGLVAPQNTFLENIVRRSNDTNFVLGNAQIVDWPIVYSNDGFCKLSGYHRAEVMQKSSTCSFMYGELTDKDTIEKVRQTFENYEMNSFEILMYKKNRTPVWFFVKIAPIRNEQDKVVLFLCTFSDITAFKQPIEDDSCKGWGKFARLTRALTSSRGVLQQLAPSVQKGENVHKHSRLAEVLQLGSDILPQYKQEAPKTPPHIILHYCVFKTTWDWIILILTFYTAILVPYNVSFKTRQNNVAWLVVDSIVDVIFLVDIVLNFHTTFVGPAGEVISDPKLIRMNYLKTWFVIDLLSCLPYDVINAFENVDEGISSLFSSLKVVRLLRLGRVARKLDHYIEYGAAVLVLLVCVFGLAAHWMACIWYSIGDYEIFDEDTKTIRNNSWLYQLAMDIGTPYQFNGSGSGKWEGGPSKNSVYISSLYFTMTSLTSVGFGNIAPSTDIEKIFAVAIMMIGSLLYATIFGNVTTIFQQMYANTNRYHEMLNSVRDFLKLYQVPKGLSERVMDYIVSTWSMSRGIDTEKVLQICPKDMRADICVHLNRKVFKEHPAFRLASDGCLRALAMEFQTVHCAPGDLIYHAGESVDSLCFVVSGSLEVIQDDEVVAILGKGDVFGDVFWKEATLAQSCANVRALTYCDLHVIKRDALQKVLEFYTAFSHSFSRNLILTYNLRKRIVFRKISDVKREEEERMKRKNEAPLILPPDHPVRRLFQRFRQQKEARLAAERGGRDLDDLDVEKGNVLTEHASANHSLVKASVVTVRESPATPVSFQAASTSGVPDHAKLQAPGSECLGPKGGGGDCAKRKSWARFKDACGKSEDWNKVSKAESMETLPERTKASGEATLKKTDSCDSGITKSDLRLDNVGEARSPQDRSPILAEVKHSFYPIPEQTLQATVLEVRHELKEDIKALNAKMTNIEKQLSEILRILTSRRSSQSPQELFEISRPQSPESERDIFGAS
As to the kind of experiment: Whole-cell patch-clamp on stably transfected HEK-293 cells expressing KV10.1. Format: cell-based. As to conditions: 10 μM, HEK-293 cells, patch-clamp, mean ± SEM. As for the experimental part: For whole-cell patch-clamp measurements, stably transfected HEK-293 cells expressing KV10.1 [26, 27, 28] were grown in DMEM with 10% FCS and 300 µg/mL Zeocin on glass coverslips coated with fibronectin. All experiments were conducted at room temperature under perfusion by gravity with extracellular solution (160 mM NaCl, 2.5 mM KCl, 2 mM CaCl2, 1 mM MgCl2, 10 mM Hepes pH 7.4 with NaOH, 8 mM glucose). Pipettes were made from #1 glass capillaries (WPI) and had 1–3 MΩ resistance. The intracellular solution contained 100 mM KCl, 45 mM N-methyl-D-glucamine, 10 mM 1,2-bis(o-aminophenoxy)ethane-N,N,N′,N′-tetraacetic acid (BAPTA), 10 mM Hepes pH 7.35. Stimulation was applied and data were acquired with an EPC10 Plus amplifier (HEKA Elektronik) controlled with Patch Master software. Compounds were applied with an 8-channel fast solution exchanger (ALA). Compounds were prepared to a stock concentration of 10 mM in DMSO. The control solution contained 0.5% DMSO. Stimuli consisted of 500 ms depolarizations to +40 mV.
All electrophysiological data are presented as means ± SEM of n ≥ 3 independent experiments unless otherwise indicated. Oocyte data were analysed using pClamp Clampfit 10.4 (Molecular Devices, Downingtown, PA, USA) and OriginPro 9 (Originlab, Northampton, MA, USA) or GraphPad Prism 8 software (GraphPad Software, Inc., San Diego, CA, USA). Patch-clamp data analysis was performed using FitMaster (HEKA Electronics), IgorPro (Wavemetrics, Inc., Lake Oswego, OR, USA) and GraphPad Prism 9 (GraphPad Software, Inc., San Diego, CA, USA). The Dunnett test and one-way ANOVA were performed to calculate the significance of the induced inhibition compared to the control (p < 0.05).
(Patch clamp records ionic current or voltage across a cell membrane.)
`O=[N+]([O-])c1cc(C(F)(F)F)ccc1Nc1ccc(OCc2ccccc2)cc1` [Compound 14, N-(4-(Benzyloxy)phenyl)-2-nitro-4-(trifluoromethyl)aniline]: the “% of Kv10.1 Inhibition at 10 μM (HEK-293 Cells)” value is “inactive”.

In the case of “Methyl 2-((4-(2-hydroxy-3-morpholinopropoxy)phenyl)amino)benzoate [Compound 5e]”, the “% of Kv10.1 Inhibition at 10 μM (HEK-293 Cells)” value is recorded as 12.6 ± 6.4%.

The same assay, now with this note: HEK293; 1 μM, HEK-293 cells, patch-clamp, mean ± SEM.
One may read the inhibition as the drop in the measured response relative to a control, in per cent. Regarding `CCN(CC)CCOc1c(Br)cc(Nc2ccc(C(F)(F)F)cc2[N+](=O)[O-])cc1Br` [Compound 17b, 3,5-Dibromo-4-(2-(diethylamino)ethoxy)-N-(2-nitro-4-(trifluoromethyl)phenyl)aniline], the inhibition at 1 µM was determined as 38.2 ± 1.4%.

For `CCN(CC)CCOc1c(Cl)cc(Nc2ccc(C(F)(F)F)cc2[N+](=O)[O-])cc1Cl` [Compound 17c, 3,5-Dichloro-4-(2-(diethylamino)ethoxy)-N-(2-nitro-4-(trifluoromethyl)phenyl)aniline], the inhibition at 1 µM was 66.5 ± 5.5%.

As to `CN(C)CCOc1c(Br)cc(Nc2ccc(C(F)(F)F)cc2[N+](=O)[O-])cc1Br` [Compound 18b, 3,5-Dibromo-4-(2-(dimethylamino)ethoxy)-N-(2-nitro-4-(trifluoromethyl)phenyl)aniline], the inhibition at 1 µM is 73.5 ± 0.5%.

Consider `CN(C)CCOc1c(Cl)cc(Nc2ccc(C(F)(F)F)cc2[N+](=O)[O-])cc1Cl` [Compound 18c, 3,5-Dichloro-4-(2-(dimethylamino)ethoxy)-N-(2-nitro-4-(trifluoromethyl)phenyl)aniline], for which the inhibition at 1 µM was determined as 28.4 ± 12.1%.

Staying with this assay, now noted: HEK293; 10 μM, HEK-293 cells, patch-clamp, mean ± SEM.
For the molecule `COC(=O)c1ccccc1Oc1ccc(OCC(O)CN2CCOCC2)cc1` (centres unmarked) [Compound 5a, Methyl 2-(4-(2-hydroxy-3-morpholinopropoxy)phenoxy)benzoate], the inhibition at 10 µM turned out to be 4.1 ± 2.6%.

For the molecule `O=[N+]([O-])c1cc(C(F)(F)F)ccc1Oc1ccc(OCC(O)CN2CCOCC2)cc1` (centres unmarked) [Compound 5b, 1-Morpholino-3-(4-(2-nitro-4-(trifluoromethyl)phenoxy)phenoxy)propan-2-ol], the inhibition at 10 µM is 2.9 ± 5.3%.

Take `O=C(Nc1ccc(OCC(O)CN2CCOCC2)cc1)c1ccc(C(F)(F)F)cc1[N+](=O)[O-]` (centres unmarked) [Compound 5c, N-(4-(2-Hydroxy-3-morpholinopropoxy)phenyl)-2-nitro-4-(trifluoromethyl)benzamide]: the inhibition at 10 µM was found to be 7.5 ± 3.5%.

For the molecule `COC(=O)c1ccccc1Nc1ccc(OCC(O)CN2CCOCC2)cc1` (centres unmarked) [Compound 5d, Methyl 2-((4-(2-hydroxy-3-morpholinopropoxy)phenyl)amino)benzoate], the inhibition at 10 µM was 2.7 ± 1.2%.

As to `O=[N+]([O-])c1ccc(Nc2ccc(OCC(O)CN3CCOCC3)cc2)c([N+](=O)[O-])c1` (centres unmarked) [Compound 5f, 1-(4-((2,4-Dinitrophenyl)amino)phenoxy)-3-morpholinopropan-2-ol], the inhibition at 10 µM came out at 61.7 ± 9.1%.

On to `CN(C)CC(O)COc1ccc(Oc2ccc(C(F)(F)F)cc2[N+](=O)[O-])cc1` (centres unmarked) [Compound 6a, 1-(Dimethylamino)-3-(4-(2-nitro-4-(trifluoromethyl)phenoxy)phenoxy)propan-2-ol], for which the inhibition at 10 µM stood at 18.8 ± 4%.

`CN(C)CC(O)COc1ccc(NC(=O)c2ccc(C(F)(F)F)cc2[N+](=O)[O-])cc1` (centres unmarked) [Compound 6b, N-(4-(3-(Dimethylamino)-2-hydroxypropoxy)phenyl)-2-nitro-4-(trifluoromethyl)benzamide]: the inhibition at 10 µM turned out to be 1.7 ± 6%.

For the molecule `COC(=O)c1cc(C(F)(F)F)ccc1Nc1ccc(OCC(O)CN(C)C)cc1` (centres unmarked) [Compound 6c, Methyl 2-((4-(3-(dimethylamino)-2-hydroxypropoxy)phenyl)amino)-5-(trifluoromethyl)benzoate], the inhibition at 10 µM amounted to 4.2 ± 5.5%.

On to `CN(C)CC(O)COc1ccc(Nc2ccc([N+](=O)[O-])cc2[N+](=O)[O-])cc1` (centres unmarked) [Compound 6d, 1-(Dimethylamino)-3-(4-((2,4-dinitrophenyl)amino)phenoxy)propan-2-ol], for which the inhibition at 10 µM was found to be 61.9 ± 9%.

Consider `O=C(O)c1ccccc1Nc1ccc(OCC(O)CN2CCOCC2)cc1` (centres unmarked) [Compound 10a, 2-((4-(2-Hydroxy-3-morpholinopropoxy)phenyl)amino)benzoic acid], for which the inhibition at 10 µM was found to be 5.8 ± 5.3%.

Consider `CN(C)CC(O)COc1ccc(Nc2ccc(C(F)(F)F)cc2C(=O)O)cc1` (centres unmarked) [Compound 10b, 2-((4-(3-(Dimethylamino)-2-hydroxypropoxy)phenyl)amino)-5-(trifluoromethyl)benzoic acid], for which the inhibition at 10 µM is -2.1 ± 5.7%.

On to `O=[N+]([O-])c1cc(C(F)(F)F)ccc1Nc1ccc(OCCN2CCOCC2)cc1` [Compound 13, N-(4-(2-Morpholinoethoxy)phenyl)-2-nitro-4-(trifluoromethyl)aniline], for which the inhibition at 10 µM was 62.4 ± 3.9%.

Take `O=[N+]([O-])c1cc(C(F)(F)F)ccc1Nc1ccc(OCc2ccccc2)cc1` [Compound 14, N-(4-(Benzyloxy)phenyl)-2-nitro-4-(trifluoromethyl)aniline]: the inhibition at 10 µM worked out at 3.3 ± 1.7%.

For the molecule `CNCC(O)COc1ccc(Nc2ccc(C(F)(F)F)cc2[N+](=O)[O-])cc1` (centres unmarked) [Compound 15, 1-(Methylamino)-3-(4-((2-nitro-4-(trifluoromethyl)phenyl)amino)phenoxy)propan-2-ol], the inhibition at 10 µM turned out to be 66.6 ± 4.3%.

Take `CCN(CC)CCOc1ccc(Nc2ccc(C(F)(F)F)cc2[N+](=O)[O-])cc1` [Compound 17a, N-(4-(2-(Diethylamino)ethoxy)phenyl)-2-nitro-4-(trifluoromethyl)aniline]: the inhibition at 10 µM was determined as 86.2 ± 6.8%.

As to `CN(C)CCOc1ccc(Nc2ccc(C(F)(F)F)cc2[N+](=O)[O-])cc1` [Compound 18a, N-(4-(2-(Dimethylamino)ethoxy)phenyl)-2-nitro-4-(trifluoromethyl)aniline], the inhibition at 10 µM was 81.4 ± 5.6%.

Regarding `O=[N+]([O-])c1cc(C(F)(F)F)ccc1Nc1ccc(OCCN2CCCC2)cc1` [Compound 19, 2-Nitro-N-(4-(2-(pyrrolidin-1-yl)ethoxy)phenyl)-4-(trifluoromethyl)aniline], the inhibition at 10 µM stood at 68.4 ± 14.8%.

Turning to `O=[N+]([O-])c1cc(C(F)(F)F)ccc1Nc1ccc(OCCN2CCCCC2)cc1` [Compound 20, 2-Nitro-N-(4-(2-(piperidin-1-yl)ethoxy)phenyl)-4-(trifluoromethyl)aniline], the inhibition at 10 µM worked out at 65 ± 6%.

For the molecule `O=[N+]([O-])c1cc(C(F)(F)F)ccc1Nc1ccc(OCCN2CCCCCC2)cc1` [Compound 21, N-(4-(2-(Azepan-1-yl)ethoxy)phenyl)-2-nitro-4-(trifluoromethyl)aniline], the inhibition at 10 µM worked out at 71 ± 4.12%.

The same assay, now with this note: HEK293; 50 μM, HEK-293 cells, patch-clamp, mean ± SEM.
Turning to `O=C(Cc1ccc(Cl)c(Cl)c1)NC1CCN(CC(O)COc2ccc(Nc3ccc(C(F)(F)F)cc3[N+](=O)[O-])cc2)CC1` (centres unmarked) [Compound 16d, 2-(3,4-Dichlorophenyl)-N-(1-(2-hydroxy-3-(4-((2-nitro-4-(trifluoromethyl)phenyl)amino)phenoxy)propyl)piperidin-4-yl)acetamide], the inhibition at 50 µM turned out to be 21.8 ± 4.4%.

Still in this assay, the particulars now being: whole-cell patch-clamp, dose–response fit.
The term IC50 denotes the concentration at which inhibition is half-maximal. Lower therefore signals greater potency. The molecule `CCN(CC)CCOc1ccc(Nc2ccc(C(F)(F)F)cc2[N+](=O)[O-])cc1` [Compound 17a, N-(4-(2-(Diethylamino)ethoxy)phenyl)-2-nitro-4-(trifluoromethyl)aniline] showed an IC50 of 568 nM.

In turn, `CN(C)CCOc1ccc(Nc2ccc(C(F)(F)F)cc2[N+](=O)[O-])cc1` [Compound 18a, N-(4-(2-(Dimethylamino)ethoxy)phenyl)-2-nitro-4-(trifluoromethyl)aniline] had a concentration for half-maximal inhibition (IC50) of 892 nM.

Molecule `CN(C)CCOc1c(Br)cc(Nc2ccc(C(F)(F)F)cc2[N+](=O)[O-])cc1Br` [Compound 18b, 3,5-Dibromo-4-(2-(dimethylamino)ethoxy)-N-(2-nitro-4-(trifluoromethyl)phenyl)aniline] yielded an IC50 of 216 nM.
